Assay results: US20230413818A1, “FEED AND METHODS FOR CONTROLLING TICK INFESTATIONS IN A MAMMAL” (In the Bowl Animal Health, Inc., priority 2021, published 2023)

Legend:
[1] = Average plasma concentration of spinosad in dogs after oral dosing; assay type: in vivo
From the text: (§1) Methods: A pool of 40 dogs are to be screened before inclusion in this example by preliminarily infesting them with ˜100 unfed adult Ctenocephalidesfelis in order to produce a pool of dogs that can suitably sustain a reliable infestation rate of approximately 50% of live fleas over a 48-hour period. The dogs with the highest live flea counts are to be randomly allocated to 2 treatment groups (6 dogs per group) based on their pre-treatment flea counts from experimental infestations. The first treatment group is to be the control group and the second treatment group to be the test group.
(§2) The dogs are to be housed individually during the study period and are to be fed a commercial dry dog food ration with ad libitum access to water.
(§3) Each dog in the test group is to receive by mouth a liquid formulation of spinosyn preferably spinosad. The dosage of 2.5 mg/kg of the dog's weight is to be administered to the dogs on each of days 0-29 and the dosage of 5 mg/kg of the dog's weight is to be administered on days 30-50.
Dogs in the control group are not to receive spinosyn or any other tick control treatment. Each dog in the test group is to be offered its daily ration (dry food) and the individual doses of liquid formulation are to be administered after the individual dog has eaten at least 25% of its total daily ration. After receiving the dose of spinosyn the dogs are to be allowed to continue eating. This mimics incorporating the spinosyn in feed. Each dog in the test group and the control group is to be experimentally infested with 50 unfed adult ticks (ca. 50% male/50% female) on test days 12, 19, 28, 35, 42, 49 and 56. Comb counts for attached live and moribund adult ticks are to be conducted on days 14, 21, 30, 37, 44, 51 and 58. Note that the dosage is to be increased at day 30 and the final dose is to be given on day 50.
Using the same study method as described above, blood is to be drawn at 72, 120, 168, 336, 504, 720 and 888 hours after the initial dose of spinosyn is administered. The average concentration of spinosyn in the blood for different dosage levels can then be determined.
Referring now to TABLE 1 and FIG. 2. Sample results are shown for the average plasma concentration of spinosad in a canine's blood (ng/mL) versus time in hours for different dosage levels of spinosad. By way of comparison, the average plasma concentration of spinosyn for a single-dose administration to be given monthly (squares) is shown with the average plasma concentration of spinosyn for a substantially daily dose of 2.5 mg/kg/day or 5.0 mg/kg/day (circles). The daily dose is increased from 2.5 mg/kg/day to 5.0 mg/kg/day at about hour 700 (around day 30).

Rhipicephalus sanguineus = assay: Efficacy of spinosyn administered per os to dogs for treatment and control of Rhipicephalus sanguineus (tick comb counts); assay type: in vivo; conditions: oral daily dose increased from 2.5 to 5.0 mg/kg/day around day 30, days 37-50, FIG. 1
From the text: Efficacy of Spinosyn Administered per os, i.e. by Mouth, to Dogs for the Treatment and Control of Rhipicephalus sanguineus.
as §1, §2, §3
Dogs in the control group are not to receive spinosyn or any other tick control treatment. […]
Results: Referring now to FIG. 1. […] Percent Efficacy is determined according to the formula [AM ticks CONTROL−AM ticks TREATED]/AM ticks Control. […]

What does the source list for spinosad?
Average Plasma Concentration ([1]; oral daily 2.5-5.0 mg/kg/day spinosad (2.5 mg/kg/day phase), 72 hours): 221.50 ng/mL; Average Plasma Concentration ([1]; oral daily 2.5-5.0 mg/kg/day spinosad (2.5 mg/kg/day phase), 120 hours): 327.07 ng/mL; Average Plasma Concentration ([1]; oral daily 2.5-5.0 mg/kg/day spinosad (2.5 mg/kg/day phase), 168 hours): 455.78 ng/mL; Average Plasma Concentration ([1]; oral daily 2.5-5.0 mg/kg/day spinosad (2.5 mg/kg/day phase), 336 hours): 566.25 ng/mL; Average Plasma Concentration ([1]; oral daily 2.5-5.0 mg/kg/day spinosad (2.5 mg/kg/day phase), 504 hours): 668.77 ng/mL; Average Plasma Concentration ([1]; oral daily 2.5-5.0 mg/kg/day spinosad (5.0 mg/kg/day phase), 888 hours): 635.72 ng/mL; Average Plasma Concentration ([1]; oral daily 2.5-5.0 mg/kg/day spinosad (5.0 mg/kg/day phase), 1056 hours): 967.33 ng/mL; Average Plasma Concentration ([1]; oral daily 2.5-5.0 mg/kg/day spinosad (after final dose on day 50), 1392 hours): 761.45 ng/mL; Average Plasma Concentration ([1]; oral daily 2.5-5.0 mg/kg/day spinosad (dose raised to 5.0 mg/kg/day at about hour 700), 720 hours): 533.12 ng/mL; Percent Efficacy (reduction in attached live and moribund adult tick counts vs control) (Rhipicephalus sanguineus): increase in efficacy is clear
